Experimental data published in US20090036410A1, “Structured Phospholipids” (BTG INTERNATIONAL LIMITED, priority 2004, published 2009).

Assays:
[1] = system: CREAE model MOG in C57BL mice; assay: CREAE model, MOG-induced, clinical EAE score; assay type: in vivo
[2] = Storage stability / handling of the isolated phospholipid; assay type: physicochemical
Source text: Suitable diluents and carriers can be found in the literature in texts such as Remington's Pharmaceutical Sciences. One particular material investigated by the inventors has been PEG (polyethylene glycol) eg. PEG200. This can be used at amounts between 1 and 99% PEG to 99% to 1% by weight of active phospholipid, preferably 20 to 80% PEG to 80 to 20% of phospholipid and more preferably 40 to 60% PEG to 60 to 40% by weight of phospholipid.
The invention provides a first method of its preparation of compounds GGPc, DHGLADHGLAPc and AAPc in a one step process (scheme 5, method A) by reaction of sn-glycerophosphocholine cadmium complex with γ-linolenic, dihomo-γ-linolenic, or arachidonic anhydride (formed eg. from the n-6 acid and dicylohexylcarbodiimide). Purification of the crude product uses eg. copper sulfate washes to remove DMAP and column chromatography to take out other by-products. The first batch of product for the γ-linolenic product (44 g, 85% purity) was obtained as a yellow wax.
On a 7 g scale higher purity GGPc could be obtained by more rigorous chromatography. Furthermore freeze-drying a dioxan solution of this material gave a white solid. This solid was hygroscopic and gained weight and went to a foam on prolonged exposure to the atmosphere.

EAE = details: guinea-pig; cited from earlier work
acute rat EAE = details: depending on dose; cited from earlier work

Compound | effect on EAE score compared to CCC (dose response curve) ([1]; 100 microL dose, p<0.050 compared to CCC (150 microL)) | protection / severity of CREAE ([1]; 100 ul of 50% phospholipid in PEG200) | efficacy in the CREAE model compared to the lipid GGG of PCT/GB2004/003524 ([1]; MOG in C57BL mice, oral, initial results) | protection in CREAE ([1]; dose 100 ul, oral) | shape of dose response curve ([1]; doses 25, 50, 100 and 200 microL) | effect on EAE score (dose response curve) ([1]; higher dose of 200microL) | purity after storage (deterioration) ([2]; over 6 months, first batch, initially 85% purity yellow wax, turned brown suggesting oxidation) [%] | hygroscopicity of freeze-dried white solid ([2]; prolonged exposure to the atmosphere, gained weight and went to a foam) | effect on incidence and severity of EAE (EAE) | protection in acute rat EAE (acute rat EAE)
CCCCC/C=C\C/C=C\C/C=C\CCCCC(=O)OC[C@H](COP(=O)([O-])OCC[N+](C)(C)C)OC(=O)CCCC/C=C\C/C=C\C/C=C\CCCCC [GGPc, 1,2-Di(γ-linolenyl)-sn-glycerophosphocholine] | significant effect | protection/reduced severity | superior in efficacy | excellent protection | bell shaped curve | no effect | 70 | hygroscopic | – | –
CCCCC/C=C\C/C=C\CCCCCCCC(=O)O [linoleic acid] | – | – | – | – | – | – | – | – | partially suppresses | dose-dependent action on the clinical severity but did not abolish it
CCCCC/C=C\C/C=C\C/C=C\CCCCC(=O)O [γ-linolenic acid] | – | – | – | – | – | – | – | – | – | fully protective
